# Measurements from a melting point compilation (Tetko et al.; mined from patent text by program, amines drawn as free bases though some values may be those of a salt).
row,SMILES,melting point
1,CSc1cc2cc(-c3ccccc3)ccc2cc1OS(=O)(=O)C(F)(F)F,79.4 to 80.3 °C
2,CC(C(N)=O)c1ccc2c(c1)Oc1ncccc1CC2=O (stereo unspecified),89 to 90 °C
3,FC(F)(F)CN1CCC(CNOCc2ccccc2)CC1,93.8 to 95.1 °C
4,Cc1cc(Oc2cc(Cl)ccc2[N+](=O)[O-])n[nH]1,87 to 90 °C
5,N#C/C=C\c1ccccc1C(=O)Cl,72 to 74 °C
6,COc1cc(C2CCN(C[C@H](O)CO)CC2)ccc1Nc1ncc2ccc(-c3ccccc3N(C)S(C)(=O)=O)n2n1,108 to 116 °C
7,Cc1ccc(-c2ccccc2)c(O)c1-c1ccccc1,279 to 280 °C
8,COc1cc(OC)nc(C(C)c2ccccc2NS(=O)(=O)C(F)(F)F)n1 (stereo unspecified),132 to 133 °C
9,O=[N+]([O-])c1ccc(Sc2ccccc2)c(CO)c1,104 to 107 °C
10,COC(=O)C1=C(C)NC2=C(C(=O)OC2)C1c1cccc2nc(-c3ccccc3)sc12 (stereo unspecified),275 °C
11,CC1=NN=C(C=Cc2ccc(C#N)cc2)c2cc3c(cc2C1)OCO3,198 to 202 °C
12,Cc1c(C(=O)Nc2ccc(N3CCN(C4CCOCC4)CC3)c(C#N)c2)cnn1-c1ccc(Cl)c(Cl)c1,242 °C
13,O=C1CCCc2onc(-c3ccccc3[N+](=O)[O-])c21,125 to 127 °C
14,COc1cc(N)c(Cl)cc1C(=O)NC1CCN(CCCC(=O)N2C(C)CCCC2C)CC1OC (stereo unspecified),202 °C
15,Cc1c(N2CC[C@H](N(C)C)C2)c(F)c(N)c2c(=O)c(C(=O)O)cn(C3CC3)c12,204 to 206 °C
16,O=c1[nH]c2cc(Cl)cc([N+](=O)[O-])c2[nH]c1=O,315 to 317 °C
17,CC(C)(Cl)Cn1ncc(Cl)c(Cl)c1=O,61 to 66 °C
18,COc1ccc(-n2nc(-c3ccc(OC)c(CCC(=O)N(C)O)c3OC)cc2-c2ccc(Cl)cc2)cc1,90 to 92 °C
19,CC(C)n1nc(-c2sc(C(=O)NCc3ccncc3)nc2-c2ccc(F)cc2)ccc1=O,155 to 157 °C
20,COc1cc(C2CCNCC2)ccc1Nc1ncc2ccc(-c3cccc(S(=O)(=O)NC(C)(C)C)c3)n2n1,201 to 202 °C
21,CCOC(=O)c1noc(C(Cc2ccccc2)NC(=O)OC(C)(C)C)n1 (stereo unspecified),72 to 76 °C
22,CC(=O)NC[C@H]1CN(c2ccc(N3CCSC3)c(F)c2)C(=O)O1,103 to 105 °C
23,O=C(O)c1ccc(CCCCc2ccccc2Oc2ccccc2)cc1,120 °C
24,O=C1O[C@@H](CO)[C@H]2CCc3cc(O)ccc3N12 (relative stereo),250 °C
25,CCCc1[nH]c(C(=O)OCC)c(CC)c1C,58 to 59.5 °C
26,CCOC(=O)C1CCc2c([nH]c3ccc(N)cc23)C1 (stereo unspecified),123 to 124 °C

row,SMILES,melting point
1,Clc1cnc(Oc2cccc(C=C(Br)Br)c2)nc1,68 °C
2,CON=C(c1ncno1)c1ccccc1COc1ccc(Cl)cc1,96 to 97.5 °C
3,O=C(O)/C=C(\CC(O)CCCCCCc1ccc(Cl)cc1Cl)C(=O)O (stereo unspecified),92 to 93 °C
4,Nc1nc(N)nc(CCC(Cl)(Cl)Cl)n1,187 to 188 °C
5,ClCc1csc(-c2ccc(Cl)c(Cl)c2)n1,93 to 96 °C
6,Cc1cc(-c2ccc(OC3SCC(O)C(O)C3O)c(F)n2)ccn1 (stereo unspecified),159 to 162 °C
7,CC(C)c1nc(CCOC2=CCCc3ccccc32)n(C)c1Sc1cc(Cl)cc(Cl)c1,99 to 102 °C
8,CC[C@H](COC)n1cc(Cl)nc(N2CCc3cc(OC)cc(C#N)c32)c1=O,141 to 142 °C
9,C=CCc1ccc2oc(C(=O)OCC)cc(=O)c2c1O,99 to 100 °C
10,O=C(COc1ccccc1)N[C@H]1C(=O)N[C@H]1C(=O)O (relative stereo),150 to 151 °C
11,Nc1ccc(C2CC2)cc1C(=O)O,158 °C
12,OCC(CO)OCn1c(Cl)nc2c(Cl)c(Cl)c(Cl)c(Cl)c21,155 °C
13,Cn1cccc1CCN1C(=O)NCc2c(-c3ccccc3)cccc21,158 to 161 °C
14,CCc1cccc(CC)c1N(Cc1c[nH]nn1)C(=O)c1ccccc1,112 to 115 °C
15,COc1ccc(-c2cnc3[nH]cc(C(=O)C(C)(C)C)c3n2)cc1N1CCCC1,211 to 213 °C
16,Fc1cc2c(c(OCCNCCCc3c[nH]c4ccc(F)cc34)c1)OCCC2,137 to 138 °C
17,COc1ccc(-n2nc(CO)cc2-c2ccc(C)cc2)cc1,100 to 102 °C
18,Cc1nc2ccc3ccc(CNc4ccc5c(c4)CN([C@@H](CCC(=O)O)C(=O)N[C@@H](Cc4ccccc4)C(=O)O)C5=O)cc3c2c(=O)[nH]1,180 °C
19,Cc1nc(-c2ccc3c(c2)CCCC3)c(CO)o1,132 to 133 °C
20,C[C@@H](Nc1ncnc2[nH]c(-c3ccc(CN)cc3)cc12)c1ccccc1,253 to 256 °C
21,COC(=O)c1ccc(-c2ccc(OC)c(C(C)(C)C)c2)s1,94 to 95 °C
22,CC(C)(C)OC(=O)NCC1(O)CCN(Cc2ccccc2)CC1,109 to 112 °C
23,Cc1sc(Nc2cccc(C#N)n2)nc1-c1cn[nH]c1,331 °C
24,Brc1ccc2ccncc2c1,78 to 79 °C
25,CCOC(=O)c1c[nH]nc1NCc1ccccc1,99 to 100 °C
26,CCOC(=O)Cc1ccc(Cc2nc3c(F)c(F)cc(F)c3s2)cc1,75 to 77 °C

row,SMILES,melting point
1,COc1ccccc1NC(=O)Nc1nc(Nc2ccccc2-c2ccccc2)nc(N(CCC(=O)O)Cc2ccc(F)cc2)n1,108 °C
2,O=C(O)CCc1ccc([N+](=O)[O-])cc1,162 to 164 °C
3,CC(C)(C)C(=O)Nc1ccc(C(F)(F)F)cc1,154 to 158 °C
4,COc1ccc(OC)c(-c2c(C(C)C)cc(C(C)C)cc2C(C)C)c1I,189 to 191 °C
5,COc1cccc(-c2cnc(C#N)c(C#N)n2)c1,139 to 140 °C
6,CC(C)(C)OC(=O)NCCNS(=O)(=O)c1cc([N+](=O)[O-])c(Cl)s1,116 °C
7,COc1cc(C)nc(NC(=O)NS(=O)(=O)c2cccc3c2S(=O)(=O)C(C)C3)n1 (stereo unspecified),224 to 226 °C
8,Nc1cccc(NC(=O)NC2N=C(c3ccccc3F)c3ccccc3N(CC(=O)N3CC4CCC(CC4)C3)C2=O)c1 (racemic),> 250 °C
9,CCCCOc1c(C(=O)O)n(CC(C)(C)C)c(=O)c2cc(F)ccc12,184 to 185 °C
10,CCCCc1c2c(cc3ccc(O)cc13)-c1ccc(O)cc1CO2,187 to 189 °C
11,O=C(Nc1cccc2c1C(=O)c1c-2n[nH]c1C1CCN(C(=O)N2CCNCC2)CC1)NN1CCOCC1,195 to 197 °C
12,CN1Cc2c(-c3nc(CCl)co3)ncn2-c2ccsc2C1=O,200 to 206 °C
13,Oc1ccc(C2OCCO2)cc1Br,76 to 78 °C
14,O=C(Nc1ccc(OC(F)(F)F)cc1)NC1CCN(S(=O)(=O)c2ccccc2)CC1,188 to 189 °C
15,COc1ccc2c(c1)cc(-c1nc(C)no1)n2-c1ccc(CNC(=O)C2(N)CC2)cc1,145 to 146 °C
16,Cc1nc(CNc2c(C)cccc2C)n[nH]1,125 to 126 °C
17,CN(CC(C)(C)c1ccc(Cl)c(Cl)c1)C(=O)Nc1c(F)cc(F)cc1CCc1cc(C(C)(C)C)c(O)c(C(C)(C)C)c1,145 to 147 °C
18,C=Cc1ccnc2c([N+](=O)[O-])cccc12,134 °C
19,COc1cc(Nc2c(C#N)cnc3cc4cc(OCCN5CCN(C)CC5)c(OC)cc4cc23)c(Cl)cc1F,197 to 205 °C
20,Cc1nc2ccc(Cl)cc2n2c(-c3ccccc3Cl)nnc12,209 °C
21,CC(C)OC(=O)C1=C(c2ccccc2)C(c2ccccc2)OC1=O (stereo unspecified),120 to 122 °C
22,CCOCc1nc2c(N)nc(C)c(C)c2n1NC(C)C,110 to 120 °C
23,CCOC(=O)c1ncn(-c2nc(C)c(Cl)s2)c1S(N)(=O)=O,136 to 139 °C
24,CC(=O)Nc1cc(Cn2c(C(=O)c3cc(C)cc(C)c3)c(C(C)C)c(=O)[nH]c2=O)ccn1,244 to 245 °C
25,CC(=O)Cc1ccc(-c2ccc(Cl)cc2)cc1,79 to 81 °C
26,CCOC(=O)C(c1ccc(Nc2nc(-c3cccc(NC(=O)c4cc5c(s4)CCCCC5)c3C)cn(C)c2=O)cc1)N1CCN(CC)CC1 (stereo unspecified),168 to 170 °C

row,SMILES,melting point
1,Cc1cc2c(cc1Oc1ccc(C(=O)NNc3ccc4c(C)nn(C)c4n3)o1)C(C)(C)CC(C)C2(C)C (stereo unspecified),169 to 170 °C
2,CN(C)Cc1c[nH]c2ccc(CCS(=O)(=O)N(C)C)cc12,156 to 159 °C
3,CN1CCN(c2ccc(N/C=C3\C(=O)NC(=O)c4ccc(C(=O)O)cc43)cc2)CC1,278 to 280 °C
4,CC(C)C(C)C=CC(C)C1CCC2C1(C)CCC1C23C=CC2(CC(O)CCC12C)OO3 (stereo unspecified),165 to 169 °C
5,COC(=O)c1cc2ccc(O)cc2o1,176 to 177 °C
6,Cc1ccc(-c2nn(-c3ccc(Br)cc3)c(N)c2C(N)=O)cc1,222 to 223 °C
7,COc1ccc(Cn2ccnc2S)cc1Br,188 °C
8,CC(C)=CCN(CC=C(C)C)Cc1noc(-c2ncn3c2[C@@H]2CCCN2C(=O)c2c(Cl)cccc2-3)n1,137 to 140 °C
9,Cc1ccc(O)c(I)c1,34.5 to 35.5 °C
10,Ic1nnnn1C1CCCC1,119 °C
11,CSc1cc(C)nc(SC)c1NC(=O)CCCCCCCSc1nc2cccc(C(F)(F)F)c2o1,115 to 116 °C
12,N#Cc1cc2c3c(cccc3c1N1CCCC1)C(=O)N(O)C2=O,247 to 248 °C
13,COC(=O)Cc1coc2c(O)cccc12,58 to 59 °C
14,CCCCCCCCCCCCCCCCCCOc1cc(OCc2ccccc2)cc(C(=O)OC)c1,62 to 64 °C
15,Nc1c(F)cncc1F,99 to 101 °C
16,CCNC(=O)n1nc(Oc2ccc(N)c(C(F)(F)F)c2)cc1C,102 to 104 °C
17,Cc1oc(-c2ccccc2)nc1COc1ccc(CN(O)C(N)=O)cc1Cl,180 to 182 °C
18,CCCN(c1ncccc1N)C1CCN(Cc2ccccc2)CC1,73 to 74 °C
19,C#CCOC(=O)Oc1ccc(C(=O)c2ccc(OC(=O)OCC#C)cc2)cc1,104 to 106 °C
20,C[C@]1(CN2CCN(C(=O)N3CC=C(c4ccc(Cl)cc4)CC3)CC2)Cn2cc([N+](=O)[O-])nc2O1,161 to 162 °C
21,CCCCc1c(Cl)nc(O)nc1Cl,73 to 75 °C
22,CCC(C(C)=CC(CNC(=O)c1ccc2c(c1)CC(=O)N2)=NO)[N+](=O)[O-] (stereo unspecified),111 to 114 °C
23,CCOC(=O)c1c(C)[nH]c(CC)c1CC,104 to 106 °C
